Measurements taken from article PMC8175350, “Drug repurposing screens identify chemical entities for the development of COVID-19 interventions” (Nature Communications, 2021).
Counter-ions that a name gives are not always drawn. Like-named read-outs stand apart in the source and are kept apart here.

Legend:
Calu-3 cells [1] = assay: Uninfected Calu-3 48 h Cell-Titer Glo cytotoxicity counter screen; details: curve plateau at infinite concentration
[2] = as above; details: human, uninfected Calu-3 cells
SARS-CoV-2 [3] = assay: microbe, parasite or virus in culture; format: cell-based; details: for Emax: Severe acute respiratory syndrome coronavirus 2, Calu-3, 48 h, read-out: Calu-3 CoV-2 Sinf Average; for Calu-3 SI: selectivity index
HeLa-ACE2 cells [4] = assay: Uninfected HeLa-ACE2 24 h live/dead cytotoxicity counter screen; format: cell-based, human
[5] = as above; format: cell-based, human; details: human, uninfected HeLa-ACE2 cells
HEK293T [6] = assay: HEK293T 72 h CellTiter-Glo cytotoxicity; details: 72 h
[7] = HEK293T 72 h CellTiter-Glo cytotoxicity; details: human, HEK293T cells
HeLa-ACE2 cells [8] = assay: Total cell count in the HeLa-ACE2 TOA assay; format: cell-based; details: Homo sapiens
Description: Supplement 41467_2021_23328_MOESM3_ESM.xlsx, sheet "Table S1" | column: HeLa-ACE2 TOA cell count

SARS-CoV-2 [9] = format: cell-based
SARS-CoV-2 [10] = assay: microbe, parasite or virus in culture; format: cell-based; details: for Emax: Severe acute respiratory syndrome coronavirus 2, HeLa-ACE2, 24 h, read-out: HeLa-ACE2 CoV-2 Sinf Average; for HeLa-ACE2 SI: selectivity index, uninfected HeLa-ACE2 CC50 / SARS-CoV-2 EC50
HepG2 [11] = assay: HepG2 72 h CellTiter-Glo cytotoxicity; details: 72 h
[12] = HepG2 72 h CellTiter-Glo cytotoxicity; details: human, HepG2 cells
Calu-3 cells [13] = assay: cells; details: Homo sapiens; for Emax: Calu-3, 48 h, read-out: Calu-3 cell count Sinf Average
[14] = cited from earlier work
HeLa-ACE2 cells [15] = assay: cells; details: Homo sapiens; for Emax: HeLa-ACE2, 24 h, read-out: HeLa-ACE2 cell count Sinf Average
SARS-CoV-2 [16] = assay: microbe, parasite or virus in culture; format: cell-based; details: for Emax: Severe acute respiratory syndrome coronavirus 2, HeLa-ACE2, 10 h, read-out: HeLa-ACE2 TOA CoV-2 Sinf Average; for EC50: read-out: HeLa-ACE2 TOA CoV-2 EC50 GeoMean
HepG2 [17] = details: human, 72 h
HEK293T [18] = details: human, 72 h
Calu-3 cells [19] = test system: Calu-3 cells
in vitro = details: human, Calu-3 Uninf. cells CC50 (µM)
HeLa-ACE2 cells [20] = assay: Total cell count in the HeLa-ACE2 TOA (time of addition) assay; format: cell-based, human; details: Homo sapiens, HeLa-ACE2; read-out: HeLa-ACE2 TOA cell count EC50 GeoMean
HeLa-ACE2 cells [21] = assay: cells; format: cell-based, human; details: Homo sapiens, HeLa-ACE2; read-out: HeLa-ACE2 TOA cell count EC50 GeoMean
[22] = curve plateau at infinite concentration
[23] = Severe acute respiratory syndrome coronavirus 2, Calu-3, reconfirmed hits, read-out: Calu-3 SARS-CoV-2 EC50
[24] = reconfirmed hits, read-out: HeLa-ACE2 Uninf. cells CC50
[25] = read-out: HeLa-ACE2 uninfected cytotoxicity CC50 GeoMean
[26] = Severe acute respiratory syndrome coronavirus 2, HeLa-ACE2, reconfirmed hits, read-out: HeLa-ACE2 SARS-CoV-2 EC50
[27] = Calu-3, read-out: Calu-3 cell count EC50 GeoMean
[28] = HeLa-ACE2, read-out: HeLa-ACE2 cell count EC50 GeoMean
[29] = Severe acute respiratory syndrome coronavirus 2, HeLa-ACE2

Structure (SMILES) | Calu-3 uninfected cytotoxicity Sinf Average (Calu-3 cells [1]) | Emax (SARS-CoV-2 [3]; [22]) | EC50 (SARS-CoV-2 [3]; [23]) | HeLa-ACE2 uninfected cytotoxicity Sinf Average (HeLa-ACE2 cells [4]; [22]) | CC50 at 24 h [5, 24] | CC50 at 24 h [5, 25] | HEK293T 72-hour cytotoxicty Sinf Average (HEK293T [6]) | CC50 at 72 h [7] | Emax (SARS-CoV-2 [10]; [22]) | EC50 (SARS-CoV-2 [10]; [26]) | HepG2 72-hour cytotoxicity Sinf Average (HepG2 [11]) | CC50 at 72 h [12] | Emax (Calu-3 cells [13]) | EC50 (Calu-3 cells [13]; [27]) | Approx. t1/2 ([14]; human, ref [33]-[49]) | Emax (HeLa-ACE2 cells [15]) | EC50 (HeLa-ACE2 cells [15]; [28]) | Emax (SARS-CoV-2 [16]; [22]) | EC50 (SARS-CoV-2 [16]; [29]) | HeLa-ACE2 SI (SARS-CoV-2 [10]) | further results
CC(C)(C)Cn1c(N)nc2ccc(-c3[nH]c(C(C)(C)C)nc3-c3ccc(F)cc3)nc21 [Ralimetinib mesylate/LY2228820, Ralimetinib mesylate] | -97% | 100% | 3.83 µM | -99% | 27.4 µM | 27.4 µM | -100% | 20.3 µM | 100% | 1.87 µM | -100% | 19.8 µM | 95% | 5.55 µM | 190 h | -60% | > 6.87 µM | 100% | 0.787 µM | – | CC50 at 48 h ([2]; Calu-3 Uninf. cells CC50 (µM), reconfirmed hits): 13.8 µM; CC50 at 48 h ([2]; Calu-3 uninfected cytotoxicity CC50 GeoMean): 13.8 µM; Emax (HeLa-ACE2 cells [8]; HeLa-ACE2, 10 h, curve plateau at infinite concentration, read-out: HeLa-ACE2 TOA cell count Sinf Average): 55%; EC50 (HeLa-ACE2 cells [8]; HeLa-ACE2, read-out: HeLa-ACE2 TOA cell count EC50 GeoMean): > 4.43 µM; HeLa-ACE2 synergy score with remdesivi [δ] (SARS-CoV-2 [9]; combination with remdesivir, synergy score δ): -0.846; Cmax ([14]; read-out: Approx. Cmax, human oral, ref [33]-[49]): 5 µM
COc1ccc2c(O[C@@H]3C[C@H]4C(=O)N[C@]5(C(=O)NS(=O)(=O)C6CC6)C[C@H]5/C=C\CCCCN(C)C(=O)[C@@H]4C3)cc(-c3nc(C(C)C)cs3)nc2c1C [Simeprevir] | – | – | 7.7 µM | – | > 22.2 µM | > 22.2 µM | – | – | – | 7.88 µM | – | – | 100% | > 9.6 µM | 16 h | 100% | > 9.47 µM | – | > 8.62 µM | > 2.81 | HepG2 72-hour cytotoxicity Sinf Average (HepG2 [17]): -100%; HEK293T 72-hour cytotoxicty Sinf Average (HEK293T [18]): -102%; uninfected Calu-3 CC50 (Calu-3 cells [19]): > 22.39 ×÷ 1.591 (n=6) μM; Calu-3 uninfected cytotoxicity Sinf Average (Calu-3 cells [19]; human, 48 h): -100%; Emax (SARS-CoV-2 [3]): 100%; EC50 (SARS-CoV-2 [3]; Severe acute respiratory syndrome coronavirus 2, Calu-3, detail column, read-out: Calu-3 CoV-2 EC50 GeoMean): > 7.7 µM; Calu-3 SI (SARS-CoV-2 [3]; uninfected Calu-3 CC50 / SARS-CoV-2 EC50): > 2.91; HeLa-ACE2 uninfected cytotoxicity Sinf Average (HeLa-ACE2 cells [4]; human, uninfected HeLa-ACE2 cells, 24 h): -100%; CC50 at 48 h (in vitro): > 22.4 µM; Synergy score with remdesivir (δ) (SARS-CoV-2 [9]; HeLa-ACE2): −0.67; HeLa-ACE2 synergy score with remdesivi (SARS-CoV-2 [9]; combination with remdesivir): -0.667 δ; EC50 (HeLa-ACE2 cells [20]): > 9.59 µM; Emax (SARS-CoV-2 [10]): 100%; EC50 (SARS-CoV-2 [10]; Severe acute respiratory syndrome coronavirus 2, HeLa-ACE2, detail column, read-out: HeLa-ACE2 CoV-2 EC50 GeoMean): > 7.88 µM; Cmax ([14]; human, in vivo, po): 32 µM; Emax (SARS-CoV-2 [16]): 100%
OCCN1CCN(CC/C=C2/c3ccccc3Sc3ccc(Cl)cc32)CC1 [Zuclopenthixol] | -100% | 100% | – | -100% | – | – | -100% | 18.6 µM | 100% | – | -100% | 12.5 µM | – | – | – | 100% | – | 99% | – | > 8.08 | CC50 at 48 h ([2]; Calu-3 uninfected cytotoxicity CC50 GeoMean, detail block): 9.6 µM; EC50 (HeLa-ACE2 cells [21]): > 9.59 µM; EC50 (SARS-CoV-2 [3]; Severe acute respiratory syndrome coronavirus 2, Calu-3, detail block, read-out: Calu-3 CoV-2 EC50 GeoMean): > 9.05 µM; Calu-3 SI (SARS-CoV-2 [3]; uninfected Calu-3 CC50 / Calu-3 SARS-CoV-2 EC50): 1.06; CC50 at 24 h ([5]; detail block, read-out: HeLa-ACE2 uninfected cytotoxicity CC50 GeoMean): > 16.8 µM; EC50 (SARS-CoV-2 [10]; Severe acute respiratory syndrome coronavirus 2, HeLa-ACE2, detail block, read-out: HeLa-ACE2 CoV-2 EC50 GeoMean): 2.08 µM; EC50 (Calu-3 cells [13]; Calu-3, read-out: Calu-3 cell count EC50 GeoMean, detail block): > 9.98 µM; EC50 (HeLa-ACE2 cells [15]; HeLa-ACE2, read-out: HeLa-ACE2 cell count EC50 GeoMean, detail block): > 9.59 µM; TOA:HeLa-ACE2 EC50 Ratio (SARS-CoV-2 [16]): 2.929; EC50 (SARS-CoV-2 [16]; Severe acute respiratory syndrome coronavirus 2, HeLa-ACE2, detail block): 6.1 µM
